Counter-ions that a name gives are not always drawn. Like-named read-outs stand apart in the source and are kept apart here.
Tests used:
JCV strain Mad1/SVEΔ = assay: microbe, parasite or virus in culture; format: cell-based, JC polyomavirus (JCV); conditions: for inhibition at 10 µM / IC50: JC polyomavirus
Protocol: (§1) SV40 transformed glial cells were seeded in 10% FBS media. The cells were seeded at 2000 cells per well in 75 μl of media per well. On day 2, the media was removed and replaced by 35 μl of a 1× concentrated drug aliquot combined with a 100× diluted JCV Turbo aliquot in 35 μl of 2% FBS media (JCV Turbo is a hybrid Mad-1/SVEΔ virus constructed by insertion of the regulatory region of SV40 into the regulatory region of the Mad-1 strain of JCV (Mad-1/SVE), Vacante et al., Virology 1989, 170: 353-361). The cells were incubated for an hour, after which another 65 uL aliquot of 1× concentrated drug in 2% FBS was added. On day 5 the cells were stained with DAPI (for total cell number) and with a mouse monoclonal antibody against SV40 VP1, which cross reacts with the JCV VP1 protein. […] The information is tabulated as % inhibition (as measured by the number and percentage of JCV positive cells).
(§2) JCV Infectivity Assay: SVG-A cells were seeded at 2,000 cells/well/0.075 ml of culture media in 96 flat-bottom well plate (Corning, N.Y.). The next day compounds were prepared in assay medium (2% heat-inactivated fetal bovine serum, 4 mM L-glutamine, 1×MEM). A master viral plate was prepared by mixing equal volumes of [2×] compound and [2×] diluted virus for the final 1× concentration of the compound and the virus. The plate containing cells was gently inverted and shaken to remove media. From the master plate, 0.035 ml compound/virus was added to designated wells. The cells were incubated with the compound/virus mixture for 60 minutes in a humidified 37° C. CO2 incubator. At that time final concentration of the drug in media was added to designated wells to bring the final volume up to 0.1 ml/well. The plates were incubated for an additional three days, the cells were then washed once with 1×PBS, and fixed in 2% paraformaldehyde/1×PBS for 30 minutes at room temperature. The fixative was removed and the cells were solubilized with 0.5% Triton X100 in PBS for an additional 30 minutes. Infection by Mad-1/SVEΔ virus was visualized by staining with PAB597, a monoclonal antibody against the major capsid protein VP1, the cells were incubated with 0.05 ml of PAB597 (2 μg/ml in 1×PBS) for 60 minutes at 37° C. Following a wash step with 1×PBS, primary antibody was detected with an Alexa-Fluor 488-labeled goat anti-mouse secondary antibody at 1:100 dilution in 1×PBS, cells were counterstained with DAPI at 1 μg/ml (0.05 ml/well) for 30 minutes at 37° C. Cells were washed with 1×PBS and 0.1 ml 1×PBS was added to cells. Field images of each well were acquired and analyzed using the Cellomics ArrayScan (Thermo Scientific Inc, Waltham, Mass.) using the Target Activation software. […] The cells are seeded at 4,000 cells/well/0.075 ml of culture media in 96 flat-bottom well plate (Corning). The culture media is used for the infection. The length of the infection is six to ten days (instead of the three days for SVG-A cells).
Calculations: The rate of JCV infection was calculated by normalizing the number of JCV infected cells by the total number of nucleated cells as % JCV^+ cells=((total # VP1^+ cells)/(total # DAPI^+ cells))*100%. The % of viral inhibition by a compound was calculated using a JCV infection rate instead of using total number of JCV infected cells (e.g., VP1^+ cells).

in vitro = conditions: human
Protocol: as §1, §2
(§3) The primary assay employed an SVG-A cell line and JCV Mad1/SVEΔ viral strain.

SVG-A cells = assay: Total cell number (DAPI+ events) / cytotoxicity in the JCV infectivity assay; conditions: for inhibition at 10 µM: Homo sapiens, SVG-A, read-out: % Inhibition total Cell Number @10 uM
Protocol: as §1, §2, §3

[1] = human, in vivo
Excerpt: The published literature was reviewed for information on pharmacokinetics and brain distribution of these drugs in humans and in animal models. Since JC virus uncontrollably replicates in the oligodendrocytes and astrocytes of the effected individuals during PML but not all drugs are capable of crossing blood brain barrier it would be advantageous for any potential PML therapy if the drug candidate is capable of achieving efficacious concentration in the brain.

Mad1/SVEΔ JCV = assay: JCV infection of primary human fetal astrocytes; format: cell-based, JC polyomavirus (JCV)
Protocol: CO2 incubator. […] The culture media is used for the infection.
FIG. 5A illustrates SVG-A cells with Mad1/SVEΔ JCV (n=12) virus. FIG. 5B illustrates primary human fetal astrocytes with Mad1/SVEΔ JCV.
Since during PML many cells are already infected with JC virus, in some embodiments a drug candidate for treatment of PML may be selected as one that can inhibit viral life cycle in already infected cells. […] In FIG. 7 various concentration of the drug were added to the culture of primary human fetal astrocytes infected with JC virus at the same time as virus (circles; T=0), 3 hours after virus addition (squires; T=3 h), or 24 hours after (triangles; T=24 h). Ten days after infection with the virus cells were fixed and number of virally infected cells was enumerated. Results of a representative experiment out of 4 different experiments with primary astrocytes or SVG-A cells are shown.

JCV strain Mad-4 = JCV strain Mad-4 infection of SVG-A cells; format: cell-based, JC polyomavirus (JCV); conditions: 5 independent experiments
JCV DNA replication = JCV DNA replication by qPCR (TAg probe) in SVG-A cells; format: cell-based, JC polyomavirus (JCV); conditions: 3 days after infection, compared with infection rate inhibition
[2] = published PK data, cited from earlier work
[3] = # animal data; published PK data; cited from earlier work
[4] = Glial cell, read-out: % Inhibition (total #JCV+) @10 uM
[5] = SVG-A, read-out: % Inhibition (% JCV+) @10 uM

## Cc1c(Nc2ncccc2C(=O)O)cccc1C(F)(F)F [FLUNIXIN MEGLUMINE]
JCV strain Mad1/SVEΔ; [4]
  inhibition at 10 µM: 30%
JCV strain Mad1/SVEΔ; SVG-A
  IC50: 16.6 µM
JCV strain Mad1/SVEΔ; [5]
  inhibition at 10 µM: 33%
In vitro
  CC50: 47.7 µM
SVG-A cells
  inhibition at 10 µM: -4%

## Cc1nccc2c1[nH]c1ccccc12 [HARMANE]
JCV strain Mad1/SVEΔ; [4]
  inhibition at 10 µM: 24%
JCV strain Mad1/SVEΔ; SVG-A
  IC50: 14.4 µM
JCV strain Mad1/SVEΔ; [5]
  inhibition at 10 µM: 22%
In vitro
  CC50: > 40 µM
SVG-A cells
  inhibition at 10 µM: 4%

## OC(c1cc(C(F)(F)F)nc2c(C(F)(F)F)cccc12)C1CCCCN1 (racemic) [MEFLOQUINE, [2,8-bis(trifluoromethyl)quinolin-4-yl]-piperidin-2-ylmethanol]
JCV strain Mad1/SVEΔ; FIG. 10
  anti-JCV activity in presence of cerebrospinal fluid (CSF), in words: not inhibited by cerebrospinal fluid (CSF)
JCV strain Mad1/SVEΔ; [4]
  inhibition at 10 µM: 66%
JCV strain Mad1/SVEΔ; SVG-A
  IC50: 4 µM
JCV strain Mad1/SVEΔ; [5]
  inhibition at 10 µM: 64%
JCV strain Mad1/SVEΔ; SVG-A, read-out: IC50 (in vitro efficacious concentration)
  IC50: 3.9 ± 2.1 µM
SVG-A cells
  inhibition at 10 µM: 5%
SVG-A cells; at the drug concentrations of the dose response curves
  Inhibition of total cell numbers (DAPI+ events): less than 20%
SVG-A cells; human, 3 days
  CC50: 16.1 µM
[1]
  Brain concentration, approximated: 35 to 50 µM
Mad1/SVEΔ JCV; compared with SVG-A cells
  inhibition of JCV infection of primary human fetal astrocytes, in words: essentially the same efficacy as it inhibits viral infection in SVG-A cells
Mad1/SVEΔ JCV; primary human fetal astrocytes, read ten days after infection
  inhibition of cell infection when added 3 or 24 hours post infection, in words: just as effective at inhibiting cell infection as it was when added to the cells together with the virus
JCV strain Mad-4
  inhibition of Mad4 infection of SVG-A cells, in words: the same efficacy as Mad1/SVEΔ infection
JCV DNA replication
  percent of JCV DNA inhibition, in words: almost overlaps the percent of infection rate inhibition
[2]; read-out: plasma Cmax
  Cmax: 6 µM

## CCC(=O)Nc1ccc(Cl)c(Cl)c1 [PROPANIL]
JCV strain Mad1/SVEΔ; [4]
  inhibition at 10 µM: 12%
JCV strain Mad1/SVEΔ; SVG-A
  IC50: 7.8 µM
JCV strain Mad1/SVEΔ; [5]
  inhibition at 10 µM: 21%
In vitro
  CC50 at 3 days: > 40 µM
SVG-A cells
  inhibition at 10 µM: -12%

## COc1ccc([C@@H]2Sc3ccccc3N(CCN(C)C)C(=O)[C@@H]2OC(C)=O)cc1 [DILTIAZEM HYDROCHLORIDE]
JCV strain Mad1/SVEΔ; [4]
  inhibition at 10 µM: 20%
JCV strain Mad1/SVEΔ; SVG-A
  IC50: 8.5 µM
JCV strain Mad1/SVEΔ; [5]
  inhibition at 10 µM: 24%
In vitro
  CC50 at 3 days: > 40 µM
SVG-A cells
  inhibition at 10 µM: -4%

## Cc1cccc(Nc2ccccc2C(=O)O)c1C [MEFENAMIC ACID]
JCV strain Mad1/SVEΔ; [4]
  inhibition at 10 µM: 29%
JCV strain Mad1/SVEΔ; SVG-A
  IC50: 10.9 µM
JCV strain Mad1/SVEΔ; [5]
  inhibition at 10 µM: 29%
SVG-A cells
  inhibition at 10 µM: 0%
[3]
  Brain: 0.8 µg/mL
[2]
  plasma Cmax: 10 to 20 µg/mL

## CC(=O)O[C@H]1C[C@@]2(C)[C@@H](C[C@@H](O)[C@H]3[C@@]4(C)CC[C@@H](O)[C@@H](C)[C@@H]4CC[C@@]32C)/C1=C(\CCC=C(C)C)C(=O)O [FUSIDIC ACID]
JCV strain Mad1/SVEΔ; [4]
  inhibition at 10 µM: 39%
JCV strain Mad1/SVEΔ; SVG-A
  IC50: 8.6 µM
JCV strain Mad1/SVEΔ; [5]
  inhibition at 10 µM: 40%
SVG-A cells
  inhibition at 10 µM: -2%
[2]
  plasma Cmax: 10 to 90 µg/mL

## COc1cc(C)c2c(=O)c(-c3ccccc3)coc2c1 [METHOXYVONE]
JCV strain Mad1/SVEΔ; [4]
  inhibition at 10 µM: 38%
JCV strain Mad1/SVEΔ; SVG-A
  IC50: 17.2 µM
JCV strain Mad1/SVEΔ; [5]
  inhibition at 10 µM: 27%
In vitro
  CC50: > 40 µM
SVG-A cells
  inhibition at 10 µM: 15%

Source: patent publication US9233107B2, “Compositions and methods for the treatment of progressive multifocal leukoencephalopathy (PML)” (Biogen MA Inc., priority 2007, dated 2016)
